Test results taken from the supplement of paper PMC8967900.

Legend:
Test in all cases: selective drug sensitivity score (sDSS, relative to normal bone marrow) (sDSS (score)); higher = more potent and effective on the cell line relative to normal bone marrow cells
Details in all cases: 72 h
RCH-ACV = tested on: RCH-ACV
COG-LL-394h = tested on: COG-LL-394h
MHH-CALL-2 = tested on: MHH-CALL-2
RPMI-8402 = tested on: RPMI-8402
TMD5 = tested on: TMD5
KOPN-8 = tested on: KOPN-8
PEER = tested on: PEER
MOLT-16 = tested on: MOLT-16
P30-OHKUBO = tested on: P30-OHKUBO
PF-382 = tested on: PF-382
P12-ICHIKAWA = tested on: P12-ICHIKAWA
KASUMI-10 = tested on: KASUMI-10
ALL-PO = tested on: ALL-PO
CCRF-CEM = tested on: CCRF-CEM
COG-LL-332h = tested on: COG-LL-332h
MOLT-14 = tested on: MOLT-14
NALL-1 = tested on: NALL-1
HAL-01 = tested on: HAL-01
NALM-6 = tested on: NALM-6
REH = tested on: REH
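Note: ALL cell lines in 384-well plates, five doses spanning 10,000-fold, each plate scaled between vehicle and 100 µmol/L benzalkonium chloride controls, sDSS an adapted area-under-curve metric.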

Row | Compound | selective drug sensitivity score (RCH-ACV) | selective drug sensitivity score (COG-LL-394h) | selective drug sensitivity score (MHH-CALL-2) | selective drug sensitivity score (RPMI-8402) | selective drug sensitivity score (TMD5) | selective drug sensitivity score (KOPN-8) | selective drug sensitivity score (PEER) | selective drug sensitivity score (MOLT-16) | selective drug sensitivity score (P30-OHKUBO) | selective drug sensitivity score (PF-382) | selective drug sensitivity score (P12-ICHIKAWA) | selective drug sensitivity score (KASUMI-10) | selective drug sensitivity score (ALL-PO) | selective drug sensitivity score (CCRF-CEM) | selective drug sensitivity score (COG-LL-332h) | selective drug sensitivity score (MOLT-14) | selective drug sensitivity score (NALL-1) | selective drug sensitivity score (HAL-01) | selective drug sensitivity score (NALM-6) | selective drug sensitivity score (REH)
1 | COc1cccc2c1C(=O)c1c(O)c3c(c(O)c1C2=O)C[C@@](O)(/C(CO)=N/NC(=O)CCCCCN1C(=O)C=CC1=O)C[C@@H]3O[C@H]1C[C@H](N)[C@H](O)[C@H](C)O1 [Aldoxorubicin] (top concentration 1000 nM) | 11.7 | 8.24 | 9.84 | 5.34 | 0.34 | 14.2 | -3.06 | 16.6 | 7.34 | 3.24 | 5.04 | 9.24 | -2.06 | 7.24 | 12.1 | 12.9 | -1.86 | 0.34 | 4.34 | 12.1
2 | O=C(Nc1nc2cccc(-c3ccc(CN4CCS(=O)(=O)CC4)cc3)n2n1)C1CC1 [Filgotinib] (top concentration 10000 nM) | 1.56 | -3.34 | 5.36 | -2.24 | 0.16 | 5.46 | -2.04 | 4.86 | 2.56 | -2.24 | -1.64 | 1.46 | 6.16 | -1.34 | -1.84 | -0.44 | 5.86 | 5.66 | -2.44 | 1.16
3 | C#Cc1cccc(Nc2ncnc3cc(OCCOC)c(OCCOC)cc23)c1 [Erlotinib] (top concentration 10000 nM) | 4.26 | 2.66 | 1.76 | 2.26 | -0.34 | 7.06 | 5.16 | 4.36 | 2.96 | 0.46 | 1.56 | 4.06 | 5.46 | 2.06 | 1.96 | 4.06 | -1.24 | 0.46 | -1.24 | -0.84
4 | NC1(C(=O)N[C@@H](CCO)c2ccc(Cl)cc2)CCN(c2ncnc3[nH]ccc23)CC1 [AZD-5363] (top concentration 10000 nM) | 10.9 | -1.08 | 7.82 | 3.52 | 6.62 | 6.72 | -0.88 | 13.3 | 5.22 | 4.42 | 3.52 | 1.62 | 5.82 | 9.32 | 4.02 | -1.88 | 4.72 | 4.02 | 7.12 | 11.3
5 | Cn1cnc2c(F)c(Nc3ccc(Br)cc3Cl)c(C(=O)NOCCO)cc21 [Selumetinib] (top concentration 10000 nM) | -3.7 | -3 | 8.5 | -4.1 | 3.1 | 7 | -1.6 | -3.4 | -2.1 | -1.8 | 0.3 | -3.5 | -2.8 | 2 | -2.3 | 7.2 | -4.1 | 11 | 5 | -4.1
6 | CO[C@H]1C[C@@H]2CC[C@@H](C)[C@@](O)(O2)C(=O)C(=O)N2CCCC[C@H]2C(=O)O[C@H]([C@H](C)C[C@@H]2CC[C@@H](O)[C@H](OC)C2)CC(=O)[C@H](C)/C=C(\C)[C@@H](O)[C@@H](OC)C(=O)[C@H](C)C[C@H](C)/C=C/C=C/C=C/1C [Sirolimus] (top concentration 100 nM) | 11.1 | -3.76 | 0.84 | -1.76 | -3.56 | 17.9 | 3.74 | 5.04 | 1.34 | 1.84 | -2.46 | -3.76 | 0.14 | 3.34 | 3.04 | -2.96 | -3.66 | 0.44 | -2.86 | 0.54
7 | CCn1c(-c2nonc2N)nc2c(C#CC(C)(C)O)ncc(OC[C@H]3CCCNC3)c21 (top concentration 10000 nM) | 17.1 | 2.18 | 3.48 | 6.48 | -1.12 | 7.08 | 1.68 | 11.6 | 3.88 | 4.48 | 4.68 | 0.88 | 8.18 | 11.9 | 9.28 | 1.68 | -0.32 | -0.62 | 8.78 | 12.9
8 | NC(=O)/C(=C/n1cnc(-c2cc(C(F)(F)F)cc(C(F)(F)F)c2)n1)c1cncnc1 [Eltanexor] (top concentration 10000 nM) | 12.7 | 4.66 | 11.4 | 9.36 | -1.84 | 14.2 | 7.56 | 14.4 | 11.8 | 8.36 | 7.96 | 2.36 | 11.4 | 9.66 | 9.46 | 15.4 | 2.76 | 5.46 | 10.6 | 7.06
9 | Cc1nc(NC(=O)N2CCC[C@H]2C(N)=O)sc1-c1ccnc(C(C)(C)C(F)(F)F)c1 [Alpelisib] (top concentration 2500 nM) | 8.98 | 0.78 | 1.68 | -0.02 | -0.82 | 5.38 | -0.42 | -0.72 | 2.78 | 0.48 | -0.32 | -0.12 | 3.28 | 0.48 | 0.18 | -0.82 | -0.82 | 0.78 | 3.88 | -0.12
10 | C[C@@H]1COC(Nc2ccc3ncnc(Nc4ccc(OCc5nccs5)c(Cl)c4)c3c2)=N1 [Varlitinib] (top concentration 10000 nM) | 5.92 | -0.18 | 5.02 | 4.92 | 3.02 | 8.32 | 0.12 | -0.18 | 4.32 | -0.18 | 3.02 | -0.18 | 5.12 | -0.18 | 2.12 | -0.18 | -0.18 | -0.18 | -0.18 | 7.62
